SMILES strings stand for the structures. In brackets after ≈: the same amount, converted by molar mass. Bounds are passed on as bounds.

Data on one molecule can be found in patent US20250328351A1, “CARBONIC ANHYDRASE INHIBITORS AND ANTIBIOTICS AGAINST MULTIDRUG RESISTANT BACTERIA” (Purdue Research Foundation, priority 2018, published 2025).

Assay type in all cases: cell-based
In assay [1] the test system is Bacteroides dorei CL02T12C06 HM-719. The assay can be described thus: MIC against human normal gut microbiota. To be noted: Phocaeicola dorei; Table 3; BHIS broth, anaerobic, 48 hours; read-out: MIC. An outline of the steps:
(§1)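 Broth microdilution: 0.5 McFarland suspensions in PBS diluted to ~5×10^5 CFU/ml, BHIS broth for Bacteroides/Bifidobacterium, MRS broth for Lactobacillus. Serial compound dilutions, 48 h, 37° C; anaerobic vs 5% CO2 respectively.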

The test system of assay [2] is Bacteroides fragilis CL07T00C01 HM-709. Nature of the assay: MIC against human normal gut microbiota. To be noted: Table 3, BHIS broth, anaerobic, 48 hours, read-out: MIC. In short, it runs like this:
as §1

Assay [3] relates to Bifidobacterium breve JCP7499 HM 1120. Nature of the assay: MIC against human normal gut microbiota. To be noted: JCP7499HM1120, Table 3, BHIS broth, anaerobic, 48 hours, read-out: MIC. An outline of the steps:
as §1

The test system of assay [4] is Bifidobacterium longum subsp. Longum 44B HM 845. Nature of the assay: MIC against human normal gut microbiota. To be noted: Table 3, BHIS broth, anaerobic, 48 hours. An outline of the steps:
as §1

Assay [5] has as its system Lactobacillus casei ATCC 334. The assay can be described thus: MIC against human normal gut microbiota. To be noted: Lacticaseibacillus casei, ATCC334; Table 3; MRS broth, 5% CO2, 48 hours. In short, it runs like this: as §1
Assay [6] deals with Lactobacillus gasseri EX336960VC03 HM-400. The assay can be described thus: MIC against human normal gut microbiota. To be noted: Table 3, MRS broth, 5% CO2, 48 hours. An outline of the steps: as §1
Assay [7] relates to Mutant-15 of Enterococcus fecalis NR 31975. The assay can be described thus: microbe, parasite or virus in culture.

In the case of `CC(C)=CC(=O)Nc1nnc(S(N)(=O)=O)s1` [CAI0016, 3-Methyl-N-(5-sulfamoyl-1,3,4-thiadiazol-2-yl)but-2-enamide], the MIC in assay [1], in assay [2], in assay [3], in assay [4], in assay [5] and in assay [6] was greater than 64 µg/mL each time. Also, the MIC in assay [7] was 8 µg/mL (≈ 30.5 µM).
